We go through four compounds from patent publication US11408900B2, “Secreted P-glycoprotein is a non-invasive biomarker of chronic rhinosinusitis” (Massachusetts Eye and Ear Infirmary, priority 2016, dated 2022).

Data set [1] deals with P-gp (Homo sapiens, UniProt P08183). The note with it: cited from earlier work.
Data set [2] concerns healthy patient derived epithelial cell cultures (HSNECCs). Description: Calcein AM P-glycoprotein activity assay after recombinant P-gp exposure. Particulars: 24 hours, n=7. The class given is cell-based, human. How it is done: (§1) HSNECCs from 7 control patients and 6 CRS patients were grown as previously described^8. Briefly, mucosal samples were washed and digested in Pronase for 90 minutes at 37° C. Cell suspensions were separated from particulate matter by centrifugation and resuspended in bronchial epithelial growth media (BEGM). Cells were plated for 2 hours on standard tissue culture plates to remove contaminating fibroblasts. Cells were then expanded for 3-5 days on human collagen type IV-coated (Collagen from human placenta, Bornstein and Traub Type IV, Sigma Aldrich, St. Louis, Mo.) 75 cm^2 dishes (Corning Life Sciences, Corning, N.Y.). […]
A calcein AM assay was performed to determine whether the interpolated P-gp was functional following 24 hours of recombinant P-gp exposure as described above. […] After 15 minutes, each well was washed 3 times with cold phosphate buffered saline and the calcein fluorescence within each well was quantified using a spectrophotometer (Molecular Devices SpectraMax M5, Sunnyvale, Calif.) at an excitation and emission wavelength of 494 nm and 517 nm, respectively. A decrease in fluorescence was considered an indication of increased P-gp function as previously described^4.

Data set [3] shares this test system. Description: Quantitative fluorescent immunocytochemistry for membranous P-gp (CTCF) after recombinant P-gp exposure. The class given is cell-based, human. Particulars: 24 hours. As for the experimental part: as §1
Fluorescent staining intensity was quantified according to previously described techniques^9. Briefly, 20× fields were chosen and images were analyzed in Image J v1.49t. The cells and 3 background areas were circled in Image J using the free hand sections tool and the integrated density, area of selected cell, and mean fluorescence of the backgrounds were measured using the region of interest (ROI) manager. The corrected total cell fluorescence (CTCF) was calculated as the integrated density−(area of selected cell×mean fluorescence of background readings). […]

Data set [4] concerns HSNECCs. Nature of the data set: Epithelial cytokine secretion (IL-6, IL-8, TSLP) by ELISA after exosome exposure with or without Zosuquidar. The note with it: 0.625 μM Zosuquidar, CRSwNP relative to control. The class given is cell-based, human. As for the experimental part: Control wells were those exposed to vehicle control alone. Following exposure, the media was collected from each well. Cytokine concentrations for TSLP (Thymic Stromal Derived Lymphopoietin), Interleukin (IL)-6, and IL-8 were determined by ELISA according to the manufactures guidelines (eBioscience, San Diego, Calif.). All secreted cytokine concentrations were normalized to total protein concentrations using the Micro BCA Protein Assay Kit (Pierce, Rockford, Ill.).
(In general: In an ELISA, binding on a coated surface is turned into a signal by an enzyme label.)

Sequence of P-gp (P08183 whole entry): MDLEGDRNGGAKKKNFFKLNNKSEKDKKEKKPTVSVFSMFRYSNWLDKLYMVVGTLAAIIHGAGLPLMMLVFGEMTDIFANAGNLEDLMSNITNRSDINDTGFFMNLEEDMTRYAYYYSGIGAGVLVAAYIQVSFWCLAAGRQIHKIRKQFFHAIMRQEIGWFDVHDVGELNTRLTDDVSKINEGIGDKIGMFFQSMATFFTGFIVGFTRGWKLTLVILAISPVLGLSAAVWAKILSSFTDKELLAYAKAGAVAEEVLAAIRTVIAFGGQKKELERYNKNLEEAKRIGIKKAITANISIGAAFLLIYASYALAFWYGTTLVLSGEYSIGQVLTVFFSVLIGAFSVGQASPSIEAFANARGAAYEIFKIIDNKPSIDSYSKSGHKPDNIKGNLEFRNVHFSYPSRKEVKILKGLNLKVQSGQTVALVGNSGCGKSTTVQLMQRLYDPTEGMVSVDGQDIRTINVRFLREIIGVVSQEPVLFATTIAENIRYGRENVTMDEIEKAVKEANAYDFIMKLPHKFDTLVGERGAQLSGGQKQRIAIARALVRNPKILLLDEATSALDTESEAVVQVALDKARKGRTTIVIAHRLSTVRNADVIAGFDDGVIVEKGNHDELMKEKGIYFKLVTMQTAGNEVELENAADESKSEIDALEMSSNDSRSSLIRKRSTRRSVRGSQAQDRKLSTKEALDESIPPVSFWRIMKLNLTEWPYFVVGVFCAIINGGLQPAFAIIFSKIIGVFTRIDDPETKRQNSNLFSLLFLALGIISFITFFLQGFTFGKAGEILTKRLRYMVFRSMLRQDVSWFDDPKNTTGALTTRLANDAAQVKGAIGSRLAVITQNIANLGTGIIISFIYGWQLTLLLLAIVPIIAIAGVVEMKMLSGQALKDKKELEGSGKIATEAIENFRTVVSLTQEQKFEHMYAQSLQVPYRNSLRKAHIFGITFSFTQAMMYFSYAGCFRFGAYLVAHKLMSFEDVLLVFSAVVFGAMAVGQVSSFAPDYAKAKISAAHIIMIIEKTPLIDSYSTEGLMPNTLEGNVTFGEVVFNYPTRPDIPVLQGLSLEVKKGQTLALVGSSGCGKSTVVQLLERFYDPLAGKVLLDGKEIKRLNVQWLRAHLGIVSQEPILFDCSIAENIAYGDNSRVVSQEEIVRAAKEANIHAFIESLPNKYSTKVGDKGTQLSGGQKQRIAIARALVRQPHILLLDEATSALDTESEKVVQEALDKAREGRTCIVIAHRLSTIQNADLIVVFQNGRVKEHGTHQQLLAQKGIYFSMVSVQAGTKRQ

Take `CCOC/C=C/c1ccc(-c2nc(-c3ccc(NC(C)C)cc3)c(-c3ccc(NC(C)C)cc3)[nH]2)cc1` [OC144093, 4-[2-[4-[(E)-3-ethoxyprop-1-enyl]phenyl]-4-[4-(propan-2-ylamino)phenyl]-1H-imidazol-5-yl]-N-propan-2-ylaniline]: the “potency relative to the first and second-generation inhibitors” value in data set [1] is reported as “about 10 fold”.
On to `COc1cc2c(cc1OC)CN(CCc1ccc(NC(=O)c3cc(OC)c(OC)cc3NC(=O)c3cnc4ccccc4c3)cc1)CC2` [XR9576, N-[2-[[4-[2-(6,7-Dimethoxy-3,4-dihydro-1H-isoquinolin-2-yl)ethyl]phenyl]carbamoyl]-4,5-dimethoxyphenyl]quinoline-3-carboxamide], for which the “potency relative to the first and second-generation inhibitors” value in data set [1] is recorded as “about 10 fold”.
As for “recombinant human P-gp: recombinant human P-glycoprotein (USCN Life Sciences Inc.)”, the mean calcein fluorescence in data set [2] (100 ng/mL dose) is given as 123.11+/−42.16; in data set [2] (2000 ng/mL dose), 82.03+/−43.69. In addition, the “CTCF (corrected total cell fluorescence) of P-gp staining” value in data set [3] (2000 ng/mL recombinant human P-gp, n=7) is given as 1.34+/−1.85. In data set [3] (100-2000 ng/mL exogenous recombinant human P-gp), the “change in CTCF of P-gp staining” value is on record as “dose dependent increase”.
For `Cl.Cl.Cl.O[C@@H](COc1cccc2ncccc12)CN1CCN([C@@H]2c3ccccc3[C@@H]3[C@H](c4ccccc42)C3(F)F)CC1` [Zosuquidar, (2R)-1-{4-[(1aR,6r,10bS)-1,1-Difluoro-1,1a,6,10b-tetrahydrodibenzo[a,e]cyclopropa[c]cyclohepten-6-yl]piperazin-1-yl}-3-(quinolin-5-yloxy)propan-2-ol,trihydrochloride], in data set [4], the “effect on exosome induced increase in IL-6 secretion” value was “abrogated” and the “effect on exosome induced increase in IL-8 secretion” value is “abrogated”.
